Results from ChEMBL document CHEMBL3045278, “Anticonvulsant and sedative-hypnotic activity of some novel 3-[5-(4-substituted) phenyl-1,3,4-oxadiazole-2yl]-2-styrylquinazoline-4(3H)-ones” (Med Chem Res, 2010).
Calls of active or inactive are those of the source. The rule behind the calls is not given here.

Key:
Mus musculus [1] = organism: Mus musculus; experiment: Sedative-hypnotic activity in Mus musculus albino (mouse) assessed as increase in phenobarbitone-induced sleeping time; assay type: functional, organism-based
Mus musculus [2] = experiment: Behavioral activity in Mus musculus albino (mouse) assessed as inhibition of locomotion at 100 mg/kg, ip after 1 hr by actophotometric analysis relative to control; assay type: functional; settings: route intraperitoneal
Mus musculus [3] = experiment: Neurotoxicity in Mus musculus albino (mouse) assessed as minimal motor impairment at 300 mg/kg, ip measured at 4 hr; assay type: toxicity, organism-based; parameters: dose 300 mg/kg, route intraperitoneal; settings: in vivo
Mus musculus [4] = experiment: Neurotoxicity in Mus musculus albino (mouse) assessed as minimal motor impairment at 300 mg/kg, ip measured at 0.5 hr; assay type: toxicity, organism-based; parameters: dose 300 mg/kg, route intraperitoneal; settings: in vivo
Mus musculus [5] = experiment: Anticonvulsant activity in Mus musculus albino (mouse) assessed as protection against subcutaneous pentylenetetrazol-induced seizures at 300 mg/kg, ip measured at 4 hr; assay type: functional, organism-based; parameters: dose 300 mg/kg
Mus musculus [6] = experiment: Anticonvulsant activity in Mus musculus albino (mouse) assessed as protection against subcutaneous pentylenetetrazol-induced seizures at 300 mg/kg, ip measured at 0.5 hr; assay type: functional, organism-based; parameters: dose 300 mg/kg
Mus musculus [7] = experiment: Anticonvulsant activity in Mus musculus albino (mouse) assessed as protection against maximal electroshock-induced seizures at 300 mg/kg, ip measured at 4 hr; assay type: functional, organism-based; parameters: dose 300 mg/kg
Mus musculus [8] = experiment: Anticonvulsant activity in Mus musculus albino (mouse) assessed as protection against maximal electroshock-induced seizures at 300 mg/kg, ip measured at 0.5 hr; assay type: functional, organism-based; parameters: dose 300 mg/kg
Rattus norvegicus [9] = experiment: Antidepressant activity in Rattus norvegicus Wistar (rat) assessed as immobility time at 100 mg/kg, ip after 60 min by forced swim pool test relative to control; settings: route intraperitoneal
Mus musculus [10] = experiment: Neurotoxicity in ip dosed Mus musculus albino (mouse) assessed as minimal motor impairment measured at 0.5 hr; assay type: toxicity, organism-based; settings: in vivo
Mus musculus [11] = experiment: Neurotoxicity in ip dosed Mus musculus albino (mouse) assessed as minimal motor impairment measured at 4 hr; assay type: toxicity, organism-based; settings: in vivo
Mus musculus [12] = experiment: Anticonvulsant activity in ip dosed Mus musculus albino (mouse) assessed as protection against subcutaneous pentylenetetrazol-induced seizures measured at 4 hr; assay type: functional; settings: read-out: MED
Mus musculus [13] = experiment: Anticonvulsant activity in ip dosed Mus musculus albino (mouse) assessed as protection against subcutaneous pentylenetetrazol-induced seizures measured at 0.5 hr; assay type: functional; settings: read-out: MED
Mus musculus [14] = experiment: Anticonvulsant activity in ip dosed Mus musculus albino (mouse) assessed as protection against maximal electroshock-induced seizures measured at 4 hr; assay type: functional; settings: read-out: MED
Mus musculus [15] = experiment: Anticonvulsant activity in ip dosed Mus musculus albino (mouse) assessed as protection against maximal electroshock-induced seizures measured at 0.5 hr; assay type: functional; settings: read-out: MED
Rattus norvegicus [16] = experiment: Antidepressant activity in Rattus norvegicus Wistar (rat) assessed as immobility time at 25 mg/kg, ip after 60 min by forced swim pool test relative to control; settings: route intraperitoneal
Mus musculus [17] = experiment: Behavioral activity in Mus musculus albino (mouse) assessed as inhibition of locomotion at 25 mg/kg, ip after 1 hr by actophotometric analysis relative to control; assay type: functional; settings: route intraperitoneal

| Compound | Activity (Mus musculus [1]) | inhibition in vivo at 100 mg/kg (Mus musculus [2]) | Activity (Mus musculus [3]) | Activity (Mus musculus [4]) | Activity (Mus musculus [5]) | Activity (Mus musculus [6]) | Activity (Mus musculus [7]) | Activity (Mus musculus [8]) | Time (Rattus norvegicus [9]) | MTC (Mus musculus [10]) | MTC (Mus musculus [11]) | minimal effective dose (Mus musculus [12]) | minimal effective dose (Mus musculus [13]) | minimal effective dose (Mus musculus [14]) | minimal effective dose (Mus musculus [15]) | Time (Rattus norvegicus [16]) | inhibition in vivo at 25 mg/kg (Mus musculus [17]) |
| --- | --- | --- | --- | --- | --- | --- | --- | --- | --- | --- | --- | --- | --- | --- | --- | --- | --- |
| Cc1ccc(-c2nnc(-n3c(/C=C/c4ccc(Cl)cc4)nc4ccccc4c3=O)o2)cc1 | inactive | 56% | Non-toxic | Non-toxic | inactive | inactive | inactive | inactive | 150.76 s |  |  |  |  |  |  |  |  |
| O=c1c2ccccc2nc(/C=C/c2ccc(Cl)cc2)n1-c1nnc(-c2ccc(Cl)cc2)o1 | inactive | 53% | Non-toxic |  | inactive | inactive | inactive | inactive | 100.12 s | 100 mg/kg |  |  |  |  |  |  |  |
| NC(=O)N1c2ccccc2C=Cc2ccccc21 [CARBAMAZEPINE] |  |  |  |  |  |  |  |  |  | 100 mg/kg | 300 mg/kg | 300 mg/kg | 100 mg/kg | 100 mg/kg | 30 mg/kg | 240.3 s |  |
| CN(C)c1ccc(-c2nnc(-n3c(/C=C/c4ccc(Cl)cc4)nc4ccccc4c3=O)o2)cc1 | inactive | 49% |  |  |  |  |  |  | 121.21 s | 100 mg/kg | 100 mg/kg | 300 mg/kg | 300 mg/kg | 100 mg/kg | 100 mg/kg |  |  |
| Cc1ccc(/C=C/c2nc3ccccc3c(=O)n2-c2nnc(-c3ccc(N(C)C)cc3)o2)cc1 | inactive | 37% | Non-toxic |  | inactive | inactive | inactive | inactive | 125.42 s | 100 mg/kg |  |  |  |  |  |  |  |
| Cc1ccc(-c2nnc(-n3c(/C=C/c4ccccc4)nc4ccccc4c3=O)o2)cc1 | inactive | 48% | Non-toxic | Non-toxic | inactive | inactive | inactive | inactive | 152.39 s |  |  |  |  |  |  |  |  |
| O=c1c2ccccc2nc(/C=C/c2ccccc2)n1-c1nnc(-c2ccc(Cl)cc2)o1 | inactive | 38% | Non-toxic | Non-toxic | inactive | inactive | inactive | inactive | 217.93 s |  |  |  |  |  |  |  |  |
| O=c1c2ccccc2nc(/C=C/c2ccc(Cl)cc2)n1-c1nnc(-c2ccccc2)o1 | inactive | 51% | Non-toxic | Non-toxic | inactive | inactive | inactive | inactive | 151.11 s |  |  |  |  |  |  |  |  |
| CCCC(CCC)C(=O)[O-].[Na+] [VALPROATE SODIUM] |  |  | Non-toxic | Non-toxic | inactive |  | inactive | inactive |  |  |  |  | 300 mg/kg |  |  |  |  |
| COc1ccc(-c2nnc(-n3c(/C=C/c4ccc(C)cc4)nc4ccccc4c3=O)o2)cc1 | inactive | 42% | Non-toxic | Non-toxic | inactive | inactive | inactive | inactive | 182.82 s |  |  |  |  |  |  |  |  |
| CN(C)c1ccc(-c2nnc(-n3c(/C=C/c4ccccc4)nc4ccccc4c3=O)o2)cc1 | inactive | 30% | Non-toxic | Non-toxic | inactive | inactive | inactive | inactive | 50.23 s |  |  |  |  |  |  |  |  |
| COc1ccc(-c2nnc(-n3c(/C=C/c4ccc(Cl)cc4)nc4ccccc4c3=O)o2)cc1 | inactive | 50% | Non-toxic | Non-toxic | inactive | inactive | inactive | inactive | 184.36 s |  |  |  |  |  |  |  |  |
| O=C1NC(=O)C(c2ccccc2)(c2ccccc2)N1 [PHENYTOIN] |  |  |  |  | inactive | inactive |  |  |  | 100 mg/kg | 100 mg/kg |  |  | 30 mg/kg | 30 mg/kg |  | 70% |
| O=c1c2ccccc2nc(/C=C/c2ccccc2)n1-c1nnc(-c2ccccc2)o1 | inactive | 48% | Non-toxic | Non-toxic | inactive | inactive | inactive | inactive | 113.14 s |  |  |  |  |  |  |  |  |
| Cc1ccc(/C=C/c2nc3ccccc3c(=O)n2-c2nnc(-c3ccccc3)o2)cc1 | inactive | 47% | Non-toxic | Non-toxic | inactive | inactive | inactive | inactive | 160.05 s |  |  |  |  |  |  |  |  |
| Cc1ccc(/C=C/c2nc3ccccc3c(=O)n2-c2nnc(-c3ccc(C)cc3)o2)cc1 | inactive | 40% | Non-toxic | Non-toxic | inactive | inactive | inactive | inactive | 163.21 s |  |  |  |  |  |  |  |  |
| COc1ccc(-c2nnc(-n3c(/C=C/c4ccccc4)nc4ccccc4c3=O)o2)cc1 | inactive | 41% | Non-toxic |  | inactive | inactive | inactive | inactive | 163.75 s | 300 mg/kg |  |  |  |  |  |  |  |
| Cc1ccc(/C=C/c2nc3ccccc3c(=O)n2-c2nnc(-c3ccc(Cl)cc3)o2)cc1 | inactive | 45% | Non-toxic | Non-toxic | inactive | inactive | inactive |  | 135.18 s |  |  |  |  |  | 300 mg/kg |  |  |
